These results are taken from patent US10377753B2, “Substituted 4-azaindoles and their use as GluN2B receptor modulators” (Janssen Pharmaceutica NV, priority 2015, dated 2019).

SMILES strings stand for the structures. pIC50: −log10 of the molar value.

Sequence of cloned human NR1/NR2B ion channels (Q13224 27-1484, other chains not shown): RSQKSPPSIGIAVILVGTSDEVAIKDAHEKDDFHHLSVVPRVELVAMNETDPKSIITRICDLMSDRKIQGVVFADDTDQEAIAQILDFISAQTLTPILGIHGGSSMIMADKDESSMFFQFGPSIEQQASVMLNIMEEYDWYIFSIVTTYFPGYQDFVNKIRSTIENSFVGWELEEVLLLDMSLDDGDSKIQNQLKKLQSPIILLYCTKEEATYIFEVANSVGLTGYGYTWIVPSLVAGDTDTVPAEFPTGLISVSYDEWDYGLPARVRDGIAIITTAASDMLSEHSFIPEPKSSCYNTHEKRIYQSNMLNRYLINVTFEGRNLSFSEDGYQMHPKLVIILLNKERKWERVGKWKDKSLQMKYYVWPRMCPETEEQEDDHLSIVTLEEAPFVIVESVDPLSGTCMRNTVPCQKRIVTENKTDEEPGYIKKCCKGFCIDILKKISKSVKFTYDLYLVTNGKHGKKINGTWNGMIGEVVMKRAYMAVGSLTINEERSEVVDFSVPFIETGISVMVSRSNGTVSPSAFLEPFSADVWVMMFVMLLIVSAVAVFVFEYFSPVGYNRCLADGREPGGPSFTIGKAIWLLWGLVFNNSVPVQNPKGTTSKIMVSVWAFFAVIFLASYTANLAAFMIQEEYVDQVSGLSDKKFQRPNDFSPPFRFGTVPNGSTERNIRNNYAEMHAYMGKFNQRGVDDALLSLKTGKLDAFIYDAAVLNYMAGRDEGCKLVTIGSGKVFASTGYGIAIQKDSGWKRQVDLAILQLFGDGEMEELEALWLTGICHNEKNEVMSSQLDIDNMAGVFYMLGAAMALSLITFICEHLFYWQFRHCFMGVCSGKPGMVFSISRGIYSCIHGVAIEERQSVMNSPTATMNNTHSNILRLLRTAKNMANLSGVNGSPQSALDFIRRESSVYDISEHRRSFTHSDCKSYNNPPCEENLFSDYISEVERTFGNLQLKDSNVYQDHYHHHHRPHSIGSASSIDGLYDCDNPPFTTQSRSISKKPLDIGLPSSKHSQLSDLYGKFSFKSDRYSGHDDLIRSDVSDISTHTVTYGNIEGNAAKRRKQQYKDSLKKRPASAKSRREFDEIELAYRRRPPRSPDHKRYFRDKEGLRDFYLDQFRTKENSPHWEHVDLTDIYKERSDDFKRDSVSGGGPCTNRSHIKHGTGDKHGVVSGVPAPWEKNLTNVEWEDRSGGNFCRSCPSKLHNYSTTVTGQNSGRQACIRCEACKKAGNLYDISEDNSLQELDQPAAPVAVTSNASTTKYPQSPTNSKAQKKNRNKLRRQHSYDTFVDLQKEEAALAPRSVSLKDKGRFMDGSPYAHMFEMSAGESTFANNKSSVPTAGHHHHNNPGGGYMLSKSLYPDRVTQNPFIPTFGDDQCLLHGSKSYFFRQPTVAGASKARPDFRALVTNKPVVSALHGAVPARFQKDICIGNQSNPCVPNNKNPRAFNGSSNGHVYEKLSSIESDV

The target of the test is cloned human NR1/NR2B ion channels (Homo sapiens (Human), UniProt Q05586+Q13224). Kind of test: HNR2BC: effects of test articles on cloned human NR1/NR2B ion channels expressed in mammalian cells (FLIPR calcium flux). The class given is cell-based. Particulars: cloned human NR1/NR2B ion channels, Table 5. The method, boiled down:
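In a stable Tet-On-induced cell line expressing human GluN1/GluN2B, Calcium 5-loaded cells were preincubated 5 min with compound, then stimulated 5 min with glutamate at ~EC80 plus 10 μM glycine, in pH 7.4 HEPES buffer. FLIPR calcium fluorescence was normalized to control wells.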
A general note: Calcium assays in cells follow changes in intracellular calcium, usually with a dye or a luminescent sensor.
For the molecule `CN(C)C(=O)Cn1cc(Cl)c2ncc(-c3ccc(C(F)(F)F)s3)cc21` [Example 603, 2-[3-Chloro-6-[5-(trifluoromethyl)-2-thienyl]pyrrolo[3,2-b]pyridin-1-yl]-N,N-dimethyl-acetamide], the pIC50 is 7.20.
As for `CN(C)C(=O)Cn1ccc2ncc(-c3cc4ccccc4s3)cc21` [Example 604, 2-[6-(Benzothiophen-2-yl)pyrrolo[3,2-b]pyridin-1-yl]-N,N-dimethyl-acetamide], the pIC50 was 6.70.
Next, `CN(C)C(=O)Cn1cc(F)c2ncc(-c3ccc(F)c(C(F)(F)F)c3)cc21` [Example 605, 2-[3-Fluoro-6-[4-fluoro-3-(trifluoromethyl)phenyl]pyrrolo[3,2-b]pyridin-1-yl]-N,N-dimethyl-acetamide]: 7.20; `CN(C)C(=O)Cn1cc(F)c2ncc(-c3cccc(Cl)c3F)cc21` [Example 606, 2-[6-(3-Chloro-2-fluoro-phenyl)-3-fluoro-pyrrolo[3,2-b]pyridin-1-yl]-N,N-dimethyl-acetamide]: 7.20.
Take `Cc1cccc(-c2cnc3c(F)cn(CC(=O)N4CC(F)C4)c3c2)c1` [Example 607, 1-(3-Fluoroazetidin-1-yl)-2-[3-fluoro-6-(m-tolyl)pyrrolo[3,2-b]pyridin-1-yl]ethanone]: the pIC50 is 7.40.
`O=C(Cn1cc(F)c2ncc(-c3ccc(F)c(Cl)c3)cc21)N1CC(F)C1` [Example 608, 2-[6-(3-Chloro-4-fluoro-phenyl)-3-fluoro-pyrrolo[3,2-b]pyridin-1-yl]-1-(3-fluoroazetidin-1-yl)ethanone]: the pIC50 is 7.70.
Next, `CN(C)C(=O)Cn1cc(C(F)(F)F)c2ncc(-c3cc(F)cc(F)c3)cc21` [Example 611, 2-[6-(3,5-Difluorophenyl)-3-(trifluoromethyl)pyrrolo[3,2-b]pyridin-1-yl]-N,N-dimethyl-acetamide]: 8.00; `FC(F)(F)c1cccc(-c2cnc3c(Cl)cn(Cc4cccnc4)c3c2)c1` [Example 612, 3-Chloro-1-(3-pyridylmethyl)-6-[3-(trifluoromethyl)phenyl]pyrrolo[3,2-b]pyridine]: 7.50.
On to `FC(F)(F)c1cccc(-c2cnc3ccn(Cc4cccnn4)c3c2)c1` [Example 613, 1-(Pyridazin-3-ylmethyl)-6-[3-(trifluoromethyl)phenyl]pyrrolo[3,2-b]pyridine], for which the pIC50 is 5.60.
Next, `Cc1cc(-c2cnc3c(Cl)cn(Cc4cccnn4)c3c2)ccc1F` [Example 614, 3-Chloro-6-(4-fluoro-3-methyl-phenyl)-1-(pyridazin-3-ylmethyl)pyrrolo[3,2-b]pyridine]: 7.50.
As for `FC(F)(F)c1cccc(-c2cnc3c(Cl)cn(Cc4cccnn4)c3c2)c1` [Example 615, 3-Chloro-1-(pyridazin-3-ylmethyl)-6-[3-(trifluoromethyl)phenyl]pyrrolo[3,2-b]pyridine], the pIC50 is 7.60.
Next, `Cc1cc(-c2cnc3c(C)cn(CC(=O)N4CCCC4)c3c2)ccc1F` [Example 616, 2-[6-(4-Fluoro-3-methyl-phenyl)-3-methyl-pyrrolo[3,2-b]pyridin-1-yl]-1-pyrrolidin-1-yl-ethanone]: 7.50.
Next, `CCN(C)C(=O)Cn1cc(C)c2ncc(-c3ccc(F)c(C)c3)cc21` [Example 617, N-Ethyl-2-[6-(4-fluoro-3-methyl-phenyl)-3-methyl-pyrrolo[3,2-b]pyridin-1-yl]-N-methyl-acetamide]: 7.30.
Next, `Cc1cc(-c2cnc3c(C)cn(CC(=O)N4CC(F)(F)C4)c3c2)ccc1F` [Example 618, 1-(3,3-Difluoroazetidin-1-yl)-2-[6-(4-fluoro-3-methyl-phenyl)-3-methyl-pyrrolo[3,2-b]pyridin-1-yl]ethanone]: 7.50; `Cc1cn(CC(=O)N2CCCC2)c2cc(-c3ccc(F)c(F)c3)cnc12` [Example 619, 2-[6-(3,4-Difluorophenyl)-3-methyl-pyrrolo[3,2-b]pyridin-1-yl]-1-pyrrolidin-1-yl-ethanone]: 7.40.
Consider `CCN(C)C(=O)Cn1cc(C)c2ncc(-c3ccc(F)c(F)c3)cc21` [Example 620, 2-[6-(3,4-Difluorophenyl)-3-methyl-pyrrolo[3,2-b]pyridin-1-yl]-N-ethyl-N-methyl-acetamide], for which the pIC50 is 7.60.
Take `Cc1cn(CC(=O)N2CC(F)(F)C2)c2cc(-c3ccc(F)c(F)c3)cnc12` [Example 621, 1-(3,3-Difluoroazetidin-1-yl)-2-[6-(3,4-difluorophenyl)-3-methyl-pyrrolo[3,2-b]pyridin-1-yl]ethanone]: the pIC50 is 6.20.
The result for `Cc1c(F)ccc(-c2cnc3c(C)cn(CC(=O)N(C)C)c3c2)c1F` [Example 622, 2-[6-(2,4-Difluoro-3-methyl-phenyl)-3-methyl-pyrrolo[3,2-b]pyridin-1-yl]-N,N-dimethyl-acetamide] reads 7.00; that for `Cc1cn(CC(=O)N2CCCC2)c2cc(-c3cc(F)cc(F)c3)cnc12` [Example 623, 2-[6-(3,5-Difluorophenyl)-3-methyl-pyrrolo[3,2-b]pyridin-1-yl]-1-pyrrolidin-1-yl-ethanone], 7.80.
Next, `Cc1c(F)ccc(-c2cnc3c(C)cn(CC(=O)N4CCCC4)c3c2)c1F` [Example 624, 2-[6-(2,4-Difluoro-3-methyl-phenyl)-3-methyl-pyrrolo[3,2-b]pyridin-1-yl]-1-pyrrolidin-1-yl-ethanone]: 7.10.
For the molecule `CCN(C)C(=O)Cn1cc(C)c2ncc(-c3ccc(F)c(C)c3F)cc21` [Example 625, 2-[6-(2,4-Difluoro-3-methyl-phenyl)-3-methyl-pyrrolo[3,2-b]pyridin-1-yl]-N-ethyl-N-methyl-acetamide], the negative logarithm of the IC50 (pIC50) was 7.00.
Next, `Cc1c(F)ccc(-c2cnc3c(C)cn(CC(=O)N4CC(F)(F)C4)c3c2)c1F` [Example 626, 1-(3,3-Difluoroazetidin-1-yl)-2-[6-(2,4-difluoro-3-methyl-phenyl)-3-methyl-pyrrolo[3,2-b]pyridin-1-yl]ethanone]: 6.20; `Cc1c(F)ccc(-c2cnc3c(C)cn(CC(=O)N4CCC4)c3c2)c1F` [Example 627, 1-(Azetidin-1-yl)-2-[6-(2,4-difluoro-3-methyl-phenyl)-3-methyl-pyrrolo[3,2-b]pyridin-1-yl]ethanone]: 6.80.
`Cc1cn(CC(=O)N(C)C)c2cc(-c3ccc(Cl)s3)cnc12` [Example 628, 2-[6-(5-Chloro-2-thienyl)-3-methyl-pyrrolo[3,2-b]pyridin-1-yl]-N,N-dimethyl-acetamide]: the pIC50 was 7.00.
For the molecule `Cc1c(F)ccc(-c2cnc3c(C)cn(CC(=O)N4CC(F)C4)c3c2)c1F` [Example 629, 2-[6-(2,4-Difluoro-3-methyl-phenyl)-3-methyl-pyrrolo[3,2-b]pyridin-1-yl]-1-(3-fluoroazetidin-1-yl)ethanone], the pIC50 is 7.40.
The result for `CCN(C)C(=O)Cn1cc(C)c2ncc(-c3ccc(C)s3)cc21` [Example 630, N-Ethyl-N-methyl-2-[3-methyl-6-(5-methyl-2-thienyl)pyrrolo[3,2-b]pyridin-1-yl]acetamide] reads 6.60; that for `Cc1ccc(-c2cnc3c(C)cn(CC(=O)N4CCCC4)c3c2)s1` [Example 631, 2-[3-Methyl-6-(5-methyl-2-thienyl)pyrrolo[3,2-b]pyridin-1-yl]-1-pyrrolidin-1-yl-ethanone], 6.80.
Next, `Cc1ccc(-c2cnc3c(C)cn(CC(=O)N4CC(F)(F)C4)c3c2)s1` [Example 632, 1-(3,3-Difluoroazetidin-1-yl)-2-[3-methyl-6-(5-methyl-2-thienyl)pyrrolo[3,2-b]pyridin-1-yl]ethanone]: 6.70; `Cc1ccc(-c2cnc3c(C)cn(CC(=O)N4CCC4)c3c2)s1` [Example 633, 1-(Azetidin-1-yl)-2-[3-methyl-6-(5-methyl-2-thienyl)pyrrolo[3,2-b]pyridin-1-yl]ethanone]: 7.30; `Cc1ccc(-c2cnc3c(C)cn(CC(=O)N4CC(F)C4)c3c2)s1` [Example 634, 1-(3-Fluoroazetidin-1-yl)-2-[3-methyl-6-(5-methyl-2-thienyl)pyrrolo[3,2-b]pyridin-1-yl]ethanone]: 6.20.
Take `Cc1cn(CC(=O)N2CC(F)C2)c2cc(-c3cc(F)cc(F)c3)cnc12` [Example 635, 2-[6-(3,5-Difluorophenyl)-3-methyl-pyrrolo[3,2-b]pyridin-1-yl]-1-(3-fluoroazetidin-1-yl)ethanone]: the pIC50 is 6.50.
In the case of `Cc1cn(CC(=O)N2CC(F)C2)c2cc(-c3ccc(Cl)s3)cnc12` [Example 636, 2-[6-(5-Chloro-2-thienyl)-3-methyl-pyrrolo[3,2-b]pyridin-1-yl]-1-(3-fluoroazetidin-1-yl)ethanone], the pIC50 was 6.80.
Next, `Cc1ccc(-c2cnc3c(C)cn(CC(=O)N(C)C)c3c2)s1` [Example 637, N,N-Dimethyl-2-[3-methyl-6-(5-methyl-2-thienyl)pyrrolo[3,2-b]pyridin-1-yl]acetamide]: 6.50.
Consider `Cc1cn(CC(=O)N2CC(F)C2)c2cc(-c3ccccc3F)cnc12` [Example 638, 1-(3-Fluoroazetidin-1-yl)-2-[6-(2-fluorophenyl)-3-methyl-pyrrolo[3,2-b]pyridin-1-yl]ethanone], for which the pIC50 was 6.90.
The result for `CN(C)C(=O)Cn1ccc2ncc(-c3ccc(C(F)F)s3)cc21` [Example 639, 2-[6-[5-(Difluoromethyl)-2-thienyl]pyrrolo[3,2-b]pyridin-1-yl]-N,N-dimethyl-acetamide] reads 6.70.

Broadly, the pIC50 is −log10 of the IC50, conventionally taken in molar units.
